Data set [1] concerns α-glucosidase. The experiment in a line: In vitro α-glucosidase inhibition assay (pNPG substrate). The following applies: for Inhibitory Rate (%): mean ± SD (n = 3); for IC50: mean ± SD, n = 3. In kind it is biochemical. As for the experimental part: The α-glucosidase inhibition assay was carried out on the basis of the method reported by Zhang et al., with minor modifications. […] […] To initiate the reaction, pNPG (40 μL) was added to the reaction mixture and incubated at 37 °C for 30 min. The reaction was terminated by adding 20 μL of Na2CO3, after which the absorbance was determined at 405 nm by a microplate reader (SpectraMax190, Micro-g Biotech, Guangzhou, China).

Data set [2] concerns 3T3-L1 adipocytes. The experiment in a line: Insulin-induced glucose uptake assay in 3T3-L1 adipocytes. The class given is cell-based, murine. As for the experimental part: (§1) The murine 3T3-L1 preadipocytes were supplied by the American Type Culture Collection (ATCC, Manassas, VA, USA). The cells were cultured in high-glucose DMEM supplemented with 10% (v/v) newborn calf serum (NBCS), 1% (v/v) Pen-Strep solution (P/S) at 37 °C in a humidified atmosphere of 5% CO2, and then starved until the cells reached confluence (day 0). Two days later (day 2), the cells were cultured in DMEM supplemented with 10% (v/v) fetal bovine serum (FBS), 1% (v/v) P/S, 0.5 mM 3-isobutyl-1-methylxanthine (IBMX), 1 μM dexamethasone (DEX), 1 μM rosiglitazone (ROSI) and 100 nM insulin. Three days after (day 5) the induction, the culture medium was replaced with DMEM containing 10% (v/v) FBS, 1% (v/v) P/S, and 100 nM insulin for one day (day 6). Then the cells were completely differentiated into mature adipocytes (Figure 11).
The mature adipocytes were inoculated in a 96-well plate at 5 × 10^4 cells per well for 24 h. The 3T3-L1 adipocytes were divided into model groups (blank control), insulin group (250 ng/mL, positive control), and sample group (20 μM). […] The absorbance value was detected by a microplate reader at 505 nm. The glucose uptake rate was calculated as follows:Glucose uptake rate (%) = [1 − A2/A1] × 100(1) where A1 is the absorbance of the mixed-glucose, DMEM-supplemented control, and A2 is the absorbance of the blank, insulin, or sample group.

Data set [3] deals with α-glucosidase−pNPG complex. The experiment in a line: Kinetics of α-glucosidase inhibition, S/v versus [I] plot (Ki’). The class given is biochemical. As for the experimental part:
(§2) The kinetic analysis of compounds 3, 9, and 13 were measured using the reaction conditions in Section 3.6. Typically, three different concentrations of each compound around the IC50 values were chosen. Under each concentration, α-glucosidase activity was assayed by varying the concentration of pNPG as a substrate. […] Ki and Ki’ values were determined from 1/v versus [I] (Dixon plot) and S/v versus [I] plots, respectively.

The target of data set [4] is α-glucosidase. The experiment in a line: Kinetics of α-glucosidase inhibition (Lineweaver–Burk and Dixon plots). The class given is biochemical. The following applies: for Ki: Dixon plot, 1/v versus [I], read-out: Ki (inhibitor binding to α-glucosidase); for Inhibition type: Lineweaver–Burk and Dixon plots; for Change of Km and Vmax with increased concentration of inhibitor: Lineweaver–Burk plot. As for the experimental part:
as §2

Data set [5] deals with 3T3-L1 adipocytes. The experiment in a line: Cell viability (CellTiter 96 AQueous One Solution) after the glucose uptake experiment. In kind it is cell-based, murine. The following applies: compounds at 20 μM, compared to the control group. As for the experimental part: as §1, with “Then the cells were completely differentiated into mature adipocytes (Figure 11).” left out
Cell viability was detected by using a CellTiter 96® AQueous One Solution Cell Proliferation Assay (Promega Corporation, Madison, WI, USA) according to the manufacturer’s instructions after the glucose uptake experiment. CellTiter 96® AQueous One Solution Cell Proliferation Assay reagent (20 µL/well) was added to the plate and incubated at 37 °C for 180 min before absorbance was measured at 490 nm, and the relative cell viability was calculated as follows:Relative cell viability (%) = A1/A2 × 100(2) where […].

The mark [6] stands for this setting: percent inhibition at a concentration of 50 μM.

Experimental findings from PMC9916857, “Triterpenoids from Kochiae Fructus: Glucose Uptake in 3T3-L1 Adipocytes and α-Glucosidase Inhibition, In Silico Molecular Docking” (International Journal of Molecular Sciences, 2023) are described below.

“Also recorded” adds a separate entry of the source. Marks after values point to notes of the source that are not given here.

Consider `CC1(C)CCC2(C(=O)OC3OC(CO)C(O)C(O)C3O)CCC3(C)C(=CCC4C5(C)CCC(O)C(C)(C)C5CCC43C)C2C1` [Compound 12, oleanolic acid 28-O-β-D-glucopyranosyl ester], for which the “Inhibitory Rate (%)” value with α-glucosidase [1] (setting [6]) is 41.48 ± 1.66 ^g %.

As to `C[C@H]1O[C@H](O[C@H]2[C@H](O)[C@@H](O)[C@@H](O[C@H]3[C@H](O)[C@@H](O)C(O)O[C@@H]3CO)O[C@@H]2CO)[C@H](O)[C@@H](O)[C@@H]1N[C@H]1C=C(CO)[C@@H](O)[C@H](O)[C@H]1O` (some centres unmarked) [Acarbose, acarbose, reference compound], the “Inhibitory Rate (%)” value in the data set with α-glucosidase [1] (percent inhibition at a concentration of 0.012 μM) is 87.04 ± 0.29 ^a %.

Regarding insulin, the “Effect on glucose uptake” value with 3T3-L1 adipocytes [2] (insulin at 250 ng/mL (positive control), p < 0.001 versus control group) is reported as “significantly promote”.

The term IC50 denotes the midpoint of a concentration-inhibition curve. Turning to `COC(=O)C1OC(OC2CCC3(C)C(CCC4(C)C3CC=C3C5CC(C)(C)CCC5(C(=O)O)CCC34C)C2(C)C(=O)O)C(O)C(OC2OCC(O)C(O)C2O)C1O` [Compound 2, 3(β)-3-O-β-D-xylopyranosly(1→3)-β-D-glucopyranosiduronic acid 6-methyl ester-12-en-23,28-dioic acid], the IC50 against α-glucosidase [1] is above 50 µM. In addition, the “Inhibitory Rate (%)” value in the data set with α-glucosidase [1] (setting [6]) was 14.05 ± 4.90 ^j %.

As to `CC1(C)C=C2C3CCC4[C@@]5(C)CC[C@H](O[C@@H]6O[C@H](CO)[C@@H](O)[C@H](O)[C@H]6O)C(C)(C)C5CC[C@@]4(C)[C@]3(C)CC[C@@]2(C(=O)O)CC1` (stereo partly drawn) [Compound 14, (3β)-3-(β-D-glucopyranosyloxy)olean-18-en-28-oic acid], on α-glucosidase [1], the IC50 was above 50 µM. In the data set with α-glucosidase [1] (setting [6]), the “Inhibitory Rate (%)” value is given as 17.49 ± 4.45 ^j %.

As to `COC(=O)C1OC(OC2CCC3(C)C(CCC4(C)C3CC=C3C5CC(C)(C)CCC5(C(=O)O)CCC34C)C2(C)C)C(O)C(OC2OCC(O)C(O)C2O)C1O` (centres unmarked) [Compound 5, momordin Ic 6’-methyl ester], on α-glucosidase [1], the IC50 is above 50 µM. In addition, the “Inhibitory Rate (%)” value in the data set on α-glucosidase [1] (setting [6]) is recorded as 29.62 ± 2.26 ^i %.

Take `CC1(C)CC[C@]2(C(=O)O)CC[C@]3(C)C(=CC[C@@H]4[C@@]5(C)CC[C@H](O)[C@@](C)(C(=O)O)[C@@H]5CC[C@]43C)[C@@H]2C1` [Compound 11, gypsogenic acid]: the concentration for half-maximal inhibition (IC50) against α-glucosidase [1] is above 50 µM. Further, the “Inhibitory Rate (%)” value in the data set with α-glucosidase [1] (setting [6]) is 53.98 ± 1.65 ^e %.

In turn, `CC1(C)CC[C@]2(C(=O)O)CC[C@]3(C)C(=CC[C@@H]4[C@@]5(C)CC[C@H](O[C@@H]6O[C@H](C(=O)O)[C@@H](O)[C@H](O[C@@H]7OC[C@@H](O)[C@H](O)[C@H]7O)[C@H]6O)C(C)(C)[C@@H]5CC[C@]43C)[C@@H]2C1` [Compound 4, momordin Ic] came in with an IC50 on α-glucosidase [1] above 50 µM. For the same compound, the “Inhibitory Rate (%)” value in the data set with α-glucosidase [1] (setting [6]) is listed as 26.28 ± 1.01 ^i %.

By Ki is commonly meant a dissociation constant, usually derived from enzyme kinetics or from competition with a known ligand. `CC1(C)CCC2(C(=O)OC3OC(CO)C(O)C(O)C3O)CCC3(C)C(=CCC4C5(C)CC(O)C(O)C(C)(C)C5CCC43C)C2C1` [Compound 3, 2β,3β-dihydroxyolean-12-en-28-oic acid 28-O-β-D-glucopyranoside] gave an IC50 at α-glucosidase [1] of 23.5 ± 3.37 µM. For the same compound, in the data set with α-glucosidase [1] (setting [6]), the “Inhibitory Rate (%)” value is reported as 59.79 ± 1.04 ^d %. The “Ki’ (inhibitor binding to the α-glucosidase−pNPG complex)” value in data set [3] was found to be 47.89 ± 1.37 μM. At α-glucosidase [4], the Ki amounted to 56.9 ± 1.23 µM; the Inhibition type entry was “mixed-type”; the “Change of Km and Vmax with increased concentration of inhibitor” value was “Vmax values decreased and the Km values increased”.

`COC(=O)C1OC(OC2CCC3(C)C(CCC4(C)C3CC=C3C5CC(C)(C)CCC5(C(=O)OC5OC(CO)C(O)C(O)C5O)CCC34C)C2(C)C)C(O)C(OC2OCC(O)C(O)C2O)C1O` (centres unmarked) [Compound 8, momordin IIc 6’-methyl ester] displayed an IC50 against α-glucosidase [1] above 50 µM. The “Inhibitory Rate (%)” value with α-glucosidase [1] (setting [6]) is on record as 57.02 ± 36.3 ^e %.

Compound `CCOC(=O)C1OC(OC2CCC3(C)C(CCC4(C)C3CC=C3C5CC(C)(C)CCC5(C(=O)O)CCC34C)C2(C)C)C(O)C(OC2OCC(O)C(O)C2O)C1O` (centres unmarked) [Compound 6, momordin Ic ethyl ester] gave a half-inhibitory concentration (IC50) against α-glucosidase [1] above 50 µM. In addition, the “Inhibitory Rate (%)” value in the data set on α-glucosidase [1] (setting [6]) was 35.00 ± 0.40 ^h %.

On to `CC1(C)CC2C3=CCC4[C@@]5(C)CC[C@H](O)C(C)(C)C5CC[C@@]4(C)[C@]3(C)CC[C@@]2(C(=O)O)[C@H](O)C1` (some centres unmarked) [Compound 13], for which the half-maximal inhibitory concentration (IC50) against α-glucosidase [1] was 17 ± 2.7 µM. Further, the “Inhibitory Rate (%)” value in the data set on α-glucosidase [1] (setting [6]) is reported as 69.91 ± 0.59 ^c %. In addition, the “Effect on glucose uptake” value in the data set on 3T3-L1 adipocytes [2] (compound at 20 μM, 24 h, p < 0.001 versus model group) was “potent effect; also recorded: strong effect; also recorded: significant promotion”. The “Cell viability / cytotoxicity” value with 3T3-L1 adipocytes [5] is listed as “without inhibitory effects on cell viability”. For the same compound, in data set [3], the “Ki’ (inhibitor binding to the α-glucosidase−pNPG complex)” value is given as 8.82 ± 0.06 μM. Besides, at α-glucosidase [4], the Ki is 13.6 ± 0.42 µM; the Inhibition type result is “mixed-type”; the “Change of Km and Vmax with increased concentration of inhibitor” value was “both the Km and Vmax values decreased”.

For `CC1(C)CC[C@]2(C(=O)O[C@@H]3O[C@H](CO)[C@@H](O)[C@H](O)[C@H]3O)CC[C@]3(C)C(=CC[C@@H]4[C@@]5(C)CC[C@H](O[C@@H]6O[C@H](C(=O)O)[C@@H](O)[C@H](O[C@@H]7OC[C@@H](O)[C@H](O)[C@H]7O)[C@H]6O)C(C)(C)[C@@H]5CC[C@]43C)[C@@H]2C1` [Compound 7, momordin IIc], the IC50 at α-glucosidase [1] is above 50 µM. Further, the “Inhibitory Rate (%)” value in the data set on α-glucosidase [1] (setting [6]) was 52.71 ± 0.85 ^f %.

As for `CC1(C)CCC2(C(=O)O)CCC3(C)C(=CCC4C5(C)CCC(OC6OC(C(=O)O)C(O)C(OC7OCC(O)C(O)C7O)C6O)C(C)(C(=O)O)C5CCC43C)C2C1` [Compound 1, 3(β)-3-O-β-D-xylopyranosly(1→3)-β-D-glucopyranosiduronic acid-12-en-23,28-dioic acid], the IC50 against α-glucosidase [1] was above 50 µM. Moreover, in the data set with α-glucosidase [1] (setting [6]), the “Inhibitory Rate (%)” value is 13.71 ± 0.54 ^j %.

In the case of `CC1(C)CCC2(C(=O)OC3OC(CO)C(O)C(O)C3O)CCC3(C)C(=CCC4C5(C)CCC(OC6OC(C(=O)O)C(O)C(OC7OCC(O)C(O)C7O)C6OC6OC(CO)C(O)C(O)C6O)C(C)(C)C5CCC43C)C2C1` [Compound 9, 2’-O-β-D-glucopyranosyl momordin IIc], at α-glucosidase [1], it took 4.29 ± 0.52 µM to reach half-maximal inhibition (IC50). Moreover, the “Inhibitory Rate (%)” value in the data set on α-glucosidase [1] (setting [6]) was 74.41 ± 1.02 ^b %. For the same compound, the “Ki’ (inhibitor binding to the α-glucosidase−pNPG complex)” value in data set [3] is reported as 19.52 ± 0.26 μM. Further, on α-glucosidase [4], the inhibitory constant (Ki) was 48.88 ± 0.07 µM; the Inhibition type entry is “mixed-type”; the “Change of Km and Vmax with increased concentration of inhibitor” value is “both the Km and Vmax values decreased”.
